How the values were obtained:
steroid sulfatase [1] = target: T1, steroid sulfatase (Homo sapiens, UniProt P08842); assay: Assay using human skin homogenate (DHEAS cleavage); type: biochemical; parameters: Frozen specimens of human cadaver skin (about 100 mg per sample) are minced into small pieces; from tissue; host or cells: human cadaver skin, minced, in Triton X-100 buffer; details: human cadaver skin homogenate; [3H]DHEAS substrate; 18 hrs at 37° C.
T1 sequence (P08842 22-583): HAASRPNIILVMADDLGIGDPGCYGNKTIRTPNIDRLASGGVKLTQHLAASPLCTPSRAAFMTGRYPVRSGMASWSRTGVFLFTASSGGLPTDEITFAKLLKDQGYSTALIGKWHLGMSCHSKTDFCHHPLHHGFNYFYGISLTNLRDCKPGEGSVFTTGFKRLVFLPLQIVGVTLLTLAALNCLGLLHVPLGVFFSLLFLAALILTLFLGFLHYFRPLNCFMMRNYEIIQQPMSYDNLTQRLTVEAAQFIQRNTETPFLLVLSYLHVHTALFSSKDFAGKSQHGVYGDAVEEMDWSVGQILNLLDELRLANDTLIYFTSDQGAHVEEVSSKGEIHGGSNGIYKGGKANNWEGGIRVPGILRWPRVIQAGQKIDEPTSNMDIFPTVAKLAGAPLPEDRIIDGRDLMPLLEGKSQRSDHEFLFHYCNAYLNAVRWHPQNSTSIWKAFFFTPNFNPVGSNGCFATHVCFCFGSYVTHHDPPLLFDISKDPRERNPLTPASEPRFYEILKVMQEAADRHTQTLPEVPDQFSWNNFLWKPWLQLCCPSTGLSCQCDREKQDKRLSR
Procedure: Frozen specimens of human cadaver skin (about 100 mg per sample) are minced into small pieces (about 1×1 mm) using sharp scissors. The pieces obtained are suspended in ten volumes (w/w) of buffer (20 mM Tris-HCl, pH 7.5), containing 0.1% Triton X-100. Test compounds (e.g. compounds of the present invention or compounds for use in the present invention) are added at graded concentrations from stock solutions in ethanol or DMSO. Second, DHEAS as the substrate is added (1 μC/ml [^3H]DHEAS, specific activity: about 60 Cl/mmol, and 20 μM unlabeled DHEAS). Samples are incubated for 18 hrs at 37° C. At the end of the incubation period, 50 μl of 1 M Tris, pH 10.4 and 3 ml of toluene are added. A 1-ml aliquot of the organic phase is removed and subjected to liquid scintillation counting. The determined dpm-values in the aliquots are converted to nmol of DHEA cleaved per g of skin per hour.

steroid sulfatase [2] = target: T1, steroid sulfatase; assay: Assay of human steroid sulfatase (4-methylumbelliferyl sulfate cleavage, fluorescence); type: biochemical; parameters: Human placenta is obtained freshly after delivery and stripped of membranes and connective tissues; from tissue; host or cells: human placenta (microsomes, Triton X-100 extract, chromatographically purified); details: purified human placental steroid sulfatase; 4-methylumbelliferyl sulfate substrate; 37° C., 1 hour
Procedure: Human placenta is obtained freshly after delivery and stripped of membranes and connective tissues. For storage, the material is frozen at −70° C. After thawing, all further steps are carried out at 4° C., while pH values are adjusted at 20° C. 400 g of the tissue is homogenized in 1.2 l of buffer A (50 mM Tris-HCl, pH 7.4, 0.25 M sucrose). The homogenate obtained is centrifuged at 10,000×g for 45 minutes. The supernatant is set aside and the pellet obtained is re-homogenized in 500 ml of buffer A. After centrifugation, the two supernatants obtained are combined and subjected to ultracentrifugation (100,000×g, 1 hour). The pellet obtained is resuspended in buffer A and centrifugation is repeated. […]
It is known that purified human steroid sulfatase not only is capable to cleave steroid sulfates, but also readily cleaves aryl sulfates such as 4-methylumbelliferyl sulfate which is used in the present test system as an activity indicator. […]
Plates are incubated at 37° C. for 1 hour. […] Fluorescence intensity is determined in a Titertek Fluoroskan II instrument with λex=355 nm and λem=460 nm. […]
[formula] wherein I100 is the intensity observed in the absence of inhibitor and s is a slope factor. Estrone sulfamate is used as a reference compound and its IC50 value is determined in parallel to all other test compounds. […]

Row | Molecule | IC50 (steroid sulfatase [1]) | IC50 (steroid sulfatase [2])
1 | 2-[2-(3,5-Bis-trifluoromethyl-benzenesulfonylamino)-6,7-dihydro-4H-thiazolo-[5,4-c]pyridin-yl]4-trifluoromethyl-benzamide [Example 1] | 160 nM | –
2 | CC12CCC3c4ccc(OS(N)(=O)=O)cc4CCC3C1CCC2=O (centres unmarked) [estrone sulfamate] | – | ~60 nM
